From patent publication US20120190719A1, “METHODS OF TREATING MOTOR DISORDERS WITH ALPHA-2B ANDRENERGIC RECEPTOR AGONISTS” (ALLERGAN, INC., priority 2009, published 2012)
Marks after values point to notes of the source that are not given here.

Test system: C57B/6 male mice
Assay: Defensive burying (marble burying task)
Assay type: in vivo
Details: WT mice; 300 ug/kg IP 30 minutes prior to defensive burying testing; marbles buried more than 2/3 after 30 minutes; N = 6/group; vehicle 46.40%
Description: The usefulness of alpha-2B receptor agonists in treating compulsive disorders are exemplified in a widely-used rodent model of compulsive behavior, the marble burying task. Absence of alpha2B receptor activity, either following treatment with an alpha2B receptor antagonist or in alpha2B receptor knockout mice, results in increased compulsive behavior in the marble burying task. […] Two alpha2B agonists used by the inventors, each belonging to a different compound class, are: Compound A, an imidazole thione, and Compound B, an imidazole amine.
Defensive burying: C57B/6 male mice (25-30 g) individually placed into plexiglass mouse cages filled with standard mouse bedding in their housing room. Each cage contained 7 small marbles (diameter 1 cm) and 7 larger marbles (diameter 1.5 cm). Mice remained in the cages for 30 minutes, after which time they were removed from their home cage and the number of marbles buried more than ⅔ was counted. Animals in treatment groups (Table 3) were administered compound IP (1 ml/kg) 30 min prior to testing.
For Table 2, data were evaluated by One-way ANOVA for overall effect of genotype [F(4,57)=4.155; P=0.0053]. Because the 2B WT is the only control for the 2B KO, an unpaired T-test was used to compare differences between 2B WT and 2B KO. For Table 3, data were evaluated by unpaired T-Test.

CN1CCc2c(C#N)c(N)n(C)c(=S)c2C1 [Compound C]
% Buried: 61.90%**
